Measured values as given in US20240091203A1, “METHODS FOR TREATING NON-OBSTRUCTIVE HYPERTROPHIC CARDIOMYOPATHY” (Cytokinetics, Incorporated, priority 2022, published 2024).
“Also recorded” adds a separate entry of the source.

Legend:
Format in all cases: in vivo, human
[1] = system: patients with symptomatic non-obstructive HCM (nHCM) or HCM with MVO; experiment: Phase 2 trial (Example 2): echocardiography (LVEF, diastolic function)
Method: Echocardiograms obtained on day 1 of treatment, at weeks 2, 4, 6, and 10 of treatment, and two weeks after the last dose were analyzed for several key structural and physiologic metrics; measurements of N-terminal prohormone of brain natriuretic peptide (NT-proBNP), and cardiac troponin I were also monitored. Ambulatory cardiac monitoring was conducted one week before day 1 of treatment and at week 9.
The secondary PD endpoints of the study were: Slope of the relationship of the plasma concentration of CK-3773274 to the change from baseline in the resting LVEF.
Echocardiography parameters were evaluated by the core laboratory at baseline and during treatment at the Weeks 2, 4, 6, and 10 and after a 2-week washout at Week 12 (follow-up visit).
The exploratory PD endpoints included but were not limited to: (i) The relationship of plasma concentration ranges of CK-3773274 to LVEF, LVFS, global longitudinal strain (GLS); (ii) Observed values and change from baseline in the echocardiography parameters described in Table 13 and evaluated by the core laboratory during treatment at Weeks 2, 4, 6, 10, and 12; (iii) Change in NT-proBNP from baseline to Week 10; (iv) Change in hs-cTnI from baseline to Week 10; (v) Proportion of patients with LVEF ≥50% and ≥50% reduction from baseline NT-proBNP.

[2] = Phase 1 plasma pharmacokinetics, CYP2D6 poor metabolizer cohort; settings: single 10 mg
Method: CYP2D6 poor metabolizer cohort.
CYP2D6 genotypes were determined at screening for all study participants; those identified as CYP2D6-PMs were excluded from the SAD and MAD cohorts but were invited to participate in the CYP2D6-PM cohort. The first individual in the CYP2D6-PM cohort was dosed after the SAD 25-mg cohort (FIG. 2). […] Nine participants were randomized (7:2) with a sentinel dosing group consisting of the first 2 participants treated.
(§1) Pharmacokinetic analyses. For all study groups, blood samples for PK assessment were obtained pre-dose, up to 12 times daily on day 1, and then at regular intervals throughout the study. Blood samples were collected according to the following schedule: SAD Cohorts: Day 1: pre-dose and 0.25, 0.5, 1, 1.5, 2, 2.5, 3, 4, 6, 8, 12, 16, 24, 36, 48, 72, 96, and 216 h post dose. MAD Cohorts (14-day Dosing): Day 1: pre-dose and 0.25, 0.5, 1, 1.5, 2, 2.5, 3, 4, 6, 8, and 12 h post dose; Days 2, 4, 5, 6, and 9: pre-dose (corresponding to trough samples following dosing on days 1, 3, 4, 5, and 8) and 1.5 h post dose; Days 3, 7, 8, 10, 11, 12, and 13: pre-dose (corresponding to trough samples following dosing on days 2, 6, 7, 9, 10, 11, and 12); Day 14: pre-dose and 0.25, 0.5, 1.5, 2, 2.5, 3, 4, 6, 8, 12, 16, 24, 36, 48, 72, and 168 h post dose. MAD Cohort (17-Day Dosing): Day 1: pre-dose and 0.25, 0.5, 1, 1.5, 2, 2.5, 3, 4, 6, 8, and 12 h post dose; Days 2, 4, 5, 6, and 9: pre-dose (corresponding to trough samples following dosing on days 1, 3, 4, 5, and 8) and 1.5 h post dose; Days 3, 7, 8, 10, 11, 12, 13, 14, 15, and 16: pre-dose (corresponding to trough samples following dosing on days 2, 6, 7, 9, 10, 11, and 12); Day 17: pre-dose and 0.25, 0.5, 1.5, 2, 2.5, 3, 5, 7, 9, 12, 24, 36, 48, 72, and 168 h post dose. CYPD6-PM Cohort: Day 1: pre-dose and 0.25, 0.5, 1, 1.5, 2, 2.5, 3, 4, 6, 8, 12, 16, 24, 36, 48, 72, 96, 216, 312, and 552 h post dose. Food-Effect Cohort: Day 1: pre-dose and 0.25, 0.5, 1, 1.5, 2, 2.5, 3, 4, 6, 8, 12, 16, 24, 36, 48, 72, 96, 144, and 216 h post dose. Standard non-compartmental methods were used to calculate PK parameters using Phoenix® WinNonlin® Version 7.0; actual sample collection times were utilized.

[3] = Phase 1 plasma pharmacokinetics, single-ascending dose (SAD) cohorts; settings: for AUC24 / Cmax / AUCinf / CL/F / t1/2 / Tmax: SAD; for CL/F / t1/2: mean ± SD; for Tmax: median (range)
Method: Single-ascending dose (SAD) cohorts. The SAD portion of the study used a randomized, double-blind, placebo-controlled, sequential, escalating-dose design, in which participants received single-ascending oral doses of the study drug. Seven cohorts were dosed in sequence (FIG. 2).
as §1
Statistical Analysis. The sample size chosen for this study was based upon precedent set by other first-in-human PK studies of similar nature and was not based on power calculations. […] All participants who received ≥1 dose of the study drug and had ≥1 evaluable PK plasma profile were included in the PK analysis set. […]

[4] = CYP2D6 poor metabolizers, geometric mean, n = 7
[5] = CYP2D6 poor metabolizers, mean ± SD, n = 7
[6] = single oral 1 mg, geometric mean (geometric CV %), n = 6
[7] = single oral 3 mg, geometric mean (geometric CV %), n = 6
[8] = single oral 25 mg, geometric mean (geometric CV %), n = 6
[9] = single oral 40 mg, geometric mean (geometric CV %), n = 6
[10] = single oral 50 mg, geometric mean (geometric CV %), n = 11

## CCc1nc(-c2ccc3c(c2)CC[C@H]3NC(=O)c2cnn(C)c2)no1 [aficamten, (R)—N-(5-(5-ethyl-1,2,4-oxadiazol-3-yl)-2,3-dihydro-1H-inden-1-yl)-1-methyl-1H-pyrazole-4-carboxamide]
[1]; baseline to week 10, second interim
  Doppler measures of diastolic function (lateral e′; lateral E/e′; septal E/e′): generally improved
[1]; second interim, N = 41
  change in LVEF from baseline to Week 10: −5.5%
[2]; [4]
  AUC24: 495 ng·h/mL
  AUCinf: 2966 ng·h/mL
  Cmax: 57.3 ng/mL
[2]; [5]
  CL/F: 3.6 ± 1.4 L/h
  t1/2: 110 h
[2]; versus extensive metabolizers
  impact of CYP2D6-PM phenotype on pharmacokinetics: Neither food nor CYP2D6-PM phenotype had a clinically meaningful impact; also recorded: did not appear to have reduced clearance
[3]; SAD cohorts
  maximum time to maximum observed concentration across all participants: 4.0 h
[3]; [6]
  AUC24: 50 (20) ng · h/ml
  Cmax: 5.8 (38.4) ng/ml
[3]; single oral 3 mg, geometric mean (geometric CV %), n = 5
  AUCinf: 823 (61) ng · h/ml
[3]; [7]
  AUC24: 174 (27) ng · h/ml
  Cmax: 26.1 (82.4) ng/ml
[3]; single oral 3 mg, n = 5
  CL/F: 4.2 ± 3.1 L/h
  t1/2: 75.1 ± 21.8 h
[3]; single oral 3 mg, n = 6
  Tmax: 1.3 (0.5, 2.6) h
[3]; single oral 10 mg (extensive metabolizers), geometric mean (geometric CV %), n = 6
  AUC24: 679 ng·h/mL
[3]; single oral 10 mg (extensive metabolizers), n = 4
  t1/2: 84.7 ± 17.7 h
[3]; single oral 10 mg, geometric mean (geometric CV %), n = 4
  AUCinf: 3,434 (24) ng · h/ml
[3]; single oral 10 mg, geometric mean (geometric CV %), n = 6
  Cmax: 70.5 (69.0) ng/ml
[3]; single oral 10 mg, n = 4
  CL/F: 3.0 ± 0.7 L/h
[3]; single oral 10 mg, n = 6
  Tmax: 2.8 (0.5, 3.0) h
[3]; [8]
  AUC24: 1,493 (15) ng · h/ml
  AUCinf: 7,113 (15) ng · h/ml
  Cmax: 192.6 (23.3) ng/ml
[3]; single oral 25 mg, n = 6
  CL/F: 3.6 ± 0.5 L/h
  Tmax: 1.8 (0.5, 4.0) h
[3]; single oral 40 mg, geometric mean (geometric CV %), n = 5
  AUCinf: 11,860 (20) ng · h/ml
[3]; [9]
  AUC24: 2,532 (13) ng · h/ml
  Cmax: 383.2 (67.9) ng/ml
[3]; single oral 40 mg, n = 4
  t1/2: 79.2 ± 18.5 h
[3]; single oral 40 mg, n = 5
  CL/F: 3.4 ± 0.6 L/h
[3]; single oral 50 mg, geometric mean (geometric CV %), n = 9
  AUCinf: 13,740 (35) ng · h/ml
[3]; [10]
  AUC24: 2,833 (26) ng · h/ml
  Cmax: 359.4 (38.9) ng/ml
[3]; single oral 50 mg, n = 9
  CL/F: 3.8 ± 1.1 L/h
  t1/2: 80.4 ± 14.9 h
[3]; single oral 50 mg, n = 11
  Tmax: 1.0 (0.5, 2.5) h
[3]; single oral 75 mg, n = 1
  Tmax: 0.5 (0.5, 0.5) h
  AUC24: 4,556 (—) ng · h/ml
  Cmax: 1,220 (—) ng/ml
[3]; single oral doses between 1 mg and 50 mg
  dose proportionality of Cmax and exposure (AUC24): dose-proportional; also recorded: linear kinetics
